Laboratory results from patent US9456555B2, “Agent for treating grape vine wood” (Financiere Mercier, priority 2011, dated 2016).

Columns and labels:
[1] = test system: 8 fungi referenced as pathogens and associated with various diseases of the wood; assay: Comparative in vitro test on PDA medium, mycelium growth; assay type: cell-based; conditions: 10 ml solution left for 12 h on PDA; observed several weeks, about 25° C.; neutral anolyte 100%
Procedure: That is why an in vitro test was carried out, in order to compare the effect of water, hydrogen peroxide, desogerm and the neutral anolyte (100%) on 8 fungi referenced as pathogens and associated with various diseases of the wood. Strains of the 8 fungi mentioned above were deposited on culture medium with low discrimination (PDA—Potato Dextrose Agar—Medium). Then 10 ml of each solution was added to Petri dishes with the inoculated strains of fungi, and left for 12 h.

[2] = test system: grapevine seedlings; assay: Percentage of recovery (take) after planting; assay type: in vivo
Excerpt: The result of recovery (take) after planting (growth of the plants) is very important, as the treatment must not be injurious for the grapevine seedlings.

[3] = test system: Botryosphaeria obtusa, Botryosphaeria dothidea, Eutypa lata, Fomitiporia punctata, Phaeacremonium aleophilum, Phaeomonelia chlamydospora, Phaeoacremonium spp. …; assay: Comparative in vivo test of wood disinfection, PCR analysis for presence of 8 fungi; parameters: species or system grapevine; conditions: immersion 12 h
Procedure: The in vivo test consisted of evaluating a set of 1025 plants derived from 4 rootstocks and 5 different varieties (to limit the varietal effect). Samples of the seedlings were taken before and after treatment. The treatment consisted of immersing the wood in the various solutions under test for 12 h, i.e. the usual rehydration time of the wood in the nursery (overnight). The samples of wood before and after treatment were analyzed, by extracting the total DNA of the wood samples taken, and evaluation by molecular diagnostics (PCR analysis) for the presence or absence of these 8 fungi: Botryosphaeria obtusa, Botryosphaeria dothidea, Eutypa lata, Fomitiporia punctata, Phaeacremonium aleophilum, Phaeomonelia chlamydospora, Phaeoacremonium spp. and Cylindrocarpon destructans. […] If nothing is indicated, it is because it was never found.

For `OO` [H2O2, hydrogen peroxide], the “growth of the fungi (radius of mycelium)” value [1] was “a certain efficacy”, the “Percentage of recovery of the treated seedlings” value ([2]; 8 days after planting) was 59% and the “Percentage of recovery of the treated seedlings” value ([2]; 20 days after planting) was 94.8%. The “alteration of the wood” value ([2]; contact with the cuttings during the rehydration phase) was “alters the wood”, the “fungus found at least once among the individuals evaluated (PCR)” value (from here on “fungus found”) ([3]; Merlot.N (182), with THW (50° C.-45 min)) was “B.obt” and the “fungus found” value ([3]; R110 (151), with THW (50° C.-45 min)) was “B.obt”. For the same molecule, the “fungus found” value ([3]; SO4(203), with THW (50° C.-45 min)) was “B.obt” and the “fungus found” value ([3]; SO4(203), without THW) was “E.lata”.
